US20070225202A1, “Methods for Identifying Modulators of Active Kit Tyrosine Kinase Receptor” (priority 2003, published 2007)

Experiments:
[1] = test system: HMC1.1 cells (naturally expressing KITV560G); test: cells; settings: Homo sapiens, 72 h, read-out: inhibition of proliferation
Procedure: The cell-viability assay was performed using an ATPlite™ assay (PerkinElmer Life Sciences, Boston, Mass.), according to the manufacturer's protocol. […] Cells were incubated for 72 hours in the presence or absence of KIT inhibitors and cell viability measured

[2] = test system: KIT816 mutants; settings: previous studies; cited from earlier work
[3] = test system: constitutively active KIT mutants exhibiting mutations in the juxtamembrane domain; settings: cited from earlier work
[4] = test system: KITD814V and KITD814Y; settings: KITD814V and KITD814Y expressed in transfected cells; cited from earlier work

## Cc1ccc(NC(=O)c2ccc(CN3CCN(C)CC3)cc2)cc1Nc1nccc(-c2cccnc2)n1 [Gleevec]
[1]
  inhibition at 0.1 µM: ~80%
[2]
  effectiveness against KIT816 mutants: ineffective
[3]
  inhibition of constitutively active KIT mutants: inhibit constitutively active KIT mutants

## Cc1ccc(-c2nn(C(C)(C)C)c3ncnc(N)c23)cc1 [PP1]
[4]
  inhibition of activated KIT receptors: act as inhibitors of activated KIT receptors

## CC(C)(C)n1nc(-c2ccc(Cl)cc2)c2c(N)ncnc21 [PP2]
[4]
  inhibition of activated KIT receptors: act as inhibitors of activated KIT receptors
